Assay results reported in patent US8410309B2, “Phenoxy carboxylic acid compounds and compositions for delivering active agents” (Emisphere Technologies, Inc., priority 1999, dated 2013).
Values joined by “and” are separate entries in the source; they are usually repeats but may differ in a detail not shown here. Identical values can stand only once.

How the values were obtained:
[1] = Heparin oral/intracolonic delivery, clotting time by activated partial thromboplastin time (APTT); format: in vivo, Sprague-Dawley rats; settings: rats, baseline about 20 seconds
Description: Oral gavage (PO) and/or intracolonic (IC) dosing solutions containing a delivery agent compound and heparin sodium USP were prepared in 25% aqueous propylene glycol. […] This dry mixture was dissolved in 25% v/v aqueous propylene glycol, vortexed, and placed in a sonicator (about 37° C.). The pH was adjusted to about 7 (6.5 to 8.5) with aqueous NaOH (2N). The dosing solution was sonicated to produce a clear solution. The final volume was adjusted to about 3.0 ml.
(§1) The typical dosing and sampling protocols were as follows. […] The dosing solution was expressed slowly into the colon by pressing the syringe plunger.
Citrated blood samples were collected by cardiac puncture following the administration of ketamine (88 mg/kg), typically at 0.25, 0.5, 1.0 and 1.5 hours after dosing. Heparin absorption was verified by an increase in clotting time measured by the activated partial thromboplastin time (APTT) according to the method of Henry, J. B., Clinical Diagnosis and Management by Laboratory Methods, Philadelphia, Pa., W.B. Saunders (1979). Previous studies indicated baseline values of about 20 seconds.

[2] = Low molecular weight heparin (LMWH) oral/intracolonic delivery, plasma LMWH by anti-Factor Xa assay; format: in vivo, Sprague-Dawley rats; settings: IC, rats, LMWH 750 IU/kg, 1 ml/kg
Description: Oral dosing (PO) and/or intracolonic (IC) compositions containing a delivery agent compound and low molecular weight heparin (LMWH) were prepared in 25% aqueous propylene glycol. […] Typically, the delivery agent compound and LMWH (Parnaparin, 91 IU/mg average molecular weight about 5,000, available from Opocrin, Modena, Italy) (typically 90-105 IU/mg, average molecular weight about 5,000) were mixed by vortex as dry powders. This dry mixture was dissolved in 25% v/v aqueous propylene glycol, vortexed, and placed in a sonicator (37° C.) to produce a clear solution. The pH was adjusted to about 7 (6.5-8.5) with 2N aqueous NaOH. The dosing solution was sonicated to produce a clear solution. The final volume was adjusted to 3.0 ml.
as §1
Citrated blood samples were collected by cardiac puncture following the administration of ketamine (88 mg/kg), typically at 0.5, 1.0, 2.0, 3.0 and 4.0 hours after dosing. LMWH absorption was verified by an increase in plasma LMWH measured by the anti-Factor Xa assay CHROMOSTRATE™ Heparin anti-Xa assay (available from Organon Teknika Corporation, Durham, N.C.). […] The peak of these mean plasma LMWH concentrations is reported below in Table 5.

[3] = Interferon oral delivery, serum IFN by immunoassay; format: in vivo, Sprague-Dawley rats; settings: rats, delivery agent compound 200 mg/kg, IFN 1 mg/kg, 1 ml/kg
Description: Dosing solutions of delivery agent compound and human interferon (IFN) were prepared in deionized water. […] This mixture was vortexed and placed in a sonicator (about 37° C.). The pH was adjusted to about 7.0 to 8.5 with aqueous NaOH. The mixture was vortexed to produce a uniform suspension or solution, also using sonication and heat if necessary.
(§2) The typical dosing and sampling protocols were as follows.
Serum IFN concentrations were quantified using Cytoscreen Immunoassay Kit for human IFN-alpha (catalog # KHC4012 from Biosource International, Camarillo, Calif.). Previous studies indicated baseline values of about zero.

[4] = Insulin oral delivery, serum human insulin by ELISA; settings: rats
Description: Oral dosing (PO) compositions of delivery agent compound and human zinc insulin (minimum 26 IU/mg available from Calbiochem—Novabiochem Corp, La Jolla, Calif.) were prepared in deionized water. […] The pH was adjusted to about 7 to 8.5 with NaOH or HCl. […] The final delivery agent compound dose, insulin dose and dose volume amounts are listed below in Table 8.
as §2
Serum insulin levels were determined with an Insulin ELISA Test Kit (Kit # DSL-10-1600 from Diagnostic Systems Laboratories, Inc., Webster, Tex.), modifying the standard protocol in order to optimize the sensitivity and linear range of the standard curve for the volumes and concentrations of the samples used in the present protocol. […] The five values for each time point were averaged and the results plotted as serum insulin concentration versus time.

[5] = Insulin pulmonary delivery, serum insulin by ELISA, ratio to insulin-alone control; format: in vivo, Sprague-Dawley rats; settings: rats; for Cmax (serum insulin): Table 9 pulmonary delivery, volume 1 ml/kg, delivery agent compound 3 mg/kg, insulin 100 mg/kg (so in the source)
Description: Dosing compositions of delivery agent compound and human insulin in water were prepared. Typically, to 1.5 mg of delivery agent compound was added deionized water to bring the volume to 1.0 ml, and the solution was vortexed. […] The pH was adjusted to between about 7.0 to 8.5 with NaOH or HCl. […] The final delivery agent compound dose, insulin dose and volume dose amounts are listed below in Table 9.
The typical dosing and sampling protocols were as follows. […] A control group of five animals was dosed insulin alone. A tracheal instillator for rodents, equipped with light (available from Penn Century, Inc., Pittsburgh, Pa.) was filled with dosing solution and inserted down the throat until the needle went into the trachea (confirmed visually). The dosing solution was administered by pressing the plunger.
Blood samples from each animal were collected serially from the tail artery, typically at 5, 15, 30, 60 and 120 minutes after dosing. […] The ratio of the area under the curve (AUC) for the test group versus that of the control group is reported below. The ratio of the maximum serum insulin concentration (Cmax) for the test group versus that of the control group is also reported below.

[6] = Salmon calcitonin (sCT) oral delivery, serum sCT by EIA; settings: rats, delivery agent compound dose 150 mg/kg, sCT dose 30 μg/kg, dose volume 1 (ml)
[7] = Recombinant human growth hormone (rhGH) oral delivery, serum rhGH by immunoassay; settings: oral gavage, rats; delivery agent compound 200 mg/kg, rhGH 3 mg/kg, volume dose 1 ml
[8] = Daptomycin oral delivery, plasma daptomycin by HPLC; format: in vivo, Sprague-Dawley rats; settings: rats, delivery agent compound dose 200 mg/kg, daptomycin dose 50 mg/kg, volume dose 1 mL/kg
Description: Dosing solutions containing a delivery agent compound and daptomycin (Cubist Pharmaceuticals, Cambridge, Mass.) were prepared in 0.9% normal saline. […] This mixture was vortexed and placed in a sonicator (about 37° C.). The pH was adjusted to about 7.0-7.5 with aqueous HCl or NaOH. […] The mixture was vortexed to produce a uniform solution, also using sonication if necessary. The delivery agent compound solution was mixed with daptomycin from a stock solution (200 mg daptomycin/mL in 0.9% normal saline and the pH adjusted, if necessary, to between 6.0-7.0 with NaOH or HCl). The stock solution was stored frozen (−20° C.) wrapped in foil, then thawed and warmed gradually to about 25° C. before using. The delivery agent-daptomycin mixture was vortexed at low speed to produce a uniform solution. The pH was adjusted to about 7.0-7.5 with aqueous NaOH. The solution was then diluted with 0.9% normal saline to the desired volume (usually 2.0 ml) and concentration and stored wrapped in foil before use.
as §2
Heparinized rat blood samples were collected via the ventral tail artery, typically at 0.25, 0.5, 0.75, 1.0, 2.0, and 4.0 hours after dosing, and stored on ice. Blood samples were then spun (centrifuged) at 11,500 rpm for 4 minutes at 4° C. to obtain the plasma (supernatant), which was stored at −70° C. The plasma daptomycin concentrations were measured by isocratic reversed phase HPLC, keeping samples at 4° C. during analysis. Blank plasma studies show baseline values of zero.
Daptomycin blood concentrations results from the individual animals in each dosage group were averaged for each time point.

[9] = IC (intracolonic), delivery agent compound 50 mg/kg, heparin 25 mg/kg, volume dose 1 ml
[10] = delivery agent compound 25 mg/kg
[11] = delivery agent compound 100 mg/kg, insulin 3 mg/kg, 1 ml/kg
[12] = delivery agent compound 200 mg/kg, insulin 0.5 mg/kg, 1 ml/kg
[13] = delivery agent compound 50 mg/kg

SMILES | Mean Peak Serum [IFN] ± SD [3] | Mean Peak Serum [INS] ± SD [4, 11] | Cmax (serum insulin) [5] | Mean Peak Serum [rhGH] [7] | Mean Peak APTT ± SD [1, 9] | also measured
CC(=O)c1ccccc1OCc1ccc(C(=O)O)cc1 [Compound 1] | 17.357 ± 38 ng/mL | 74.237 ± 1144.49 μU/ml | 74.237 μU/ml |  | 130.84 ± 118.18 s and 231.34 s | Mean Peak Plasma LMWH Concentration ± SD [2, 10]: 1.022 ± 0.432 IU/ml; Mean Peak Plasma LMWH Concentration ± SD ([2]; delivery agent compound 50 mg/kg, 50 mg/kg): 1.734 ± 0.192 IU/ml and 1.038 ± 0.338 IU/ml; Mean Peak Serum sCT (pg/ml ± SD) (SE) ([6]; 150 mg/kg): 317 ± 405 pg/mL and 398 ± 237 pg/mL and 410 ± 471 pg/mL
O=C(O)CCCCCCOc1ccccc1O [Compound 6, (2-hydroxyphenyl)-7-oxyheptanoic acid] | 0.5696 ± 0.8 ng/mL |  |  |  | 157.4 ± 33.7 s and 99.8 ± 50.6 s | Mean Peak APTT ± SD ([1]; PO (oral gavage), delivery agent compound 300 mg/kg, heparin 100 mg/kg, volume dose 3 ml): 193 ± 61.2 s; Mean Peak Plasma LMWH Concentration ± SD [2, 10]: 0.47 ± 0.17 IU/ml; Mean Peak Serum [INS] ± SD [4, 12]: 129.5 ± 131.5 μU/ml
CC(=O)c1ccccc1OCCCCC(=O)O [Compound 10] |  | 63.5884 ± 129.23 μU/ml | 63.5884 μU/ml | 34.3 ng/mL | 81.8 ± 7 s and 63.5 s | Mean Peak Plasma LMWH Concentration ± SD [2, 13]: 0.088 ± 0.121 IU/ml
O=C(O)C=Cc1ccccc1OCCCCCCCC(=O)O [Compound 25] |  | 47.2162 ± 31.43 μU/ml | 47.2162 μU/ml | 0 ng/mL |  | Mean Peak Serum sCT (pg/ml ± SD) (SE) [6]: 53 ± 77 pg/mL
O=C(O)CCCCCCCCCOc1cccc(O)c1 [Compound 44] |  |  |  |  |  | Mean Peak Serum [INS] ± SD ([4]; delivery agent compound 100 mg/kg, insulin 3 mg/kg, 0.5 ml/kg): 97.49 ± 134.1 μU/ml; Mean Ratio of AUC for insulin + compound versus AUC for insulin alone ([5]; pulmonary, volume 0.4 ml/kg, delivery agent compound 0.03 mg/kg, insulin 0.3 mg/kg (so in the source)): 0.76; Mean Peak Serum sCT (pg/ml ± SD) (SE) [6]: 188 ± 184 pg/mL

Now from value to compound, other results behind:

Mean Peak Serum [IFN] ± SD [3] | Mean Peak Serum [INS] ± SD [4, 11] | Cmax (serum insulin) [5] | Mean Peak Serum [rhGH] [7] | SMILES | Mean Peak APTT ± SD [1, 9] | also measured
 |  |  | 19.8 ng/mL | O=C(O)CCCOc1ccccc1 [Compound 14] |  | Mean plasma Cmax [daptomycin] ± SD [8]: 14200 ± 24840 ng/mL
0 ng/mL |  |  | 0 ng/mL | O=C(O)CCCCCCCOc1ccccc1C(=O)O [Compound 32] | 26.5 ± 2.3 s | Mean Peak Plasma LMWH Concentration ± SD [2, 13]: 0.07 ± 0.01 IU/ml; Mean Peak Serum [INS] ± SD [4, 12]: 3.12 ± 2.26 μU/ml; Mean Peak Serum [INS] ± SD ([4]; delivery agent compound 200 mg/kg, insulin 3 mg/kg, 1 ml/kg): 6.38 ± 4.42 μU/ml; Mean Peak Serum sCT (pg/ml ± SD) (SE) ([6]; 150 mg/kg): 175 ± 148 pg/mL and 103 ± 75 pg/mL and 187 ± 135 pg/mL
